42 compounds from patent US7893074B2, “2, 4-pyrimidinediamines useful in the treatment of neoplastic diseases, inflammatory and immune system disorders” (Novartis AG, priority 2003, dated 2011) can be followed below.

By pIC50 is commonly meant −log10 of the IC50, conventionally taken in molar units.

Each structure is given as a SMILES string. pIC50: −log10 of the molar value. Like-named read-outs stand apart in the source and are kept apart here.

Experiment [1] has as its target Focal Adhesion Kinase (FAK) (Homo sapiens, UniProt Q05397). Put plainly: FAK assay system (Focal Adhesion Kinase inhibition). The note with it: read-out: FAK IC50. The experiment is classed as biochemical.
Experiment [2] deals with Mouse mammary carcinoma 4T1 cells. In words: Anchorage-independent tumor cell growth assay. In kind it is cell-based. On the procedure: Cells are cultured for 2 h and inhibitors are added at various concentrations in a final concentration of 0.1% DMSO. After 48 h, cell growth is assayed with the cell counting kit-8 (Wako Pure Chemical), which uses a water soluble tetrazolium salt WST8. Twenty μL of the reagent is added into each well and cells are further cultured for 2 h. The optical density is measured at 450 nm.

A further experiment concerns the target FAK (Mus musculus, UniProt P34152). Put plainly: Phos IC50 (phosphorylation). The experiment is classed as cell-based.

Chain of Focal Adhesion Kinase (FAK) (Q05397 384-706): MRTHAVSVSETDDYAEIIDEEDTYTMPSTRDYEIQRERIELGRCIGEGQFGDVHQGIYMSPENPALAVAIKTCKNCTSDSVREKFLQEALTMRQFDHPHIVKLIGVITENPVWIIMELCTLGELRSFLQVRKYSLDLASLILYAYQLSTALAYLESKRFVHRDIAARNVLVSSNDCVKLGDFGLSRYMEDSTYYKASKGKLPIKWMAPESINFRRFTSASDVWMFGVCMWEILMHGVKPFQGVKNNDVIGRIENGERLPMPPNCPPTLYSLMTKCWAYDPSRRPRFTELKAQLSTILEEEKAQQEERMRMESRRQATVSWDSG
Chain of FAK (P34152 2-1052): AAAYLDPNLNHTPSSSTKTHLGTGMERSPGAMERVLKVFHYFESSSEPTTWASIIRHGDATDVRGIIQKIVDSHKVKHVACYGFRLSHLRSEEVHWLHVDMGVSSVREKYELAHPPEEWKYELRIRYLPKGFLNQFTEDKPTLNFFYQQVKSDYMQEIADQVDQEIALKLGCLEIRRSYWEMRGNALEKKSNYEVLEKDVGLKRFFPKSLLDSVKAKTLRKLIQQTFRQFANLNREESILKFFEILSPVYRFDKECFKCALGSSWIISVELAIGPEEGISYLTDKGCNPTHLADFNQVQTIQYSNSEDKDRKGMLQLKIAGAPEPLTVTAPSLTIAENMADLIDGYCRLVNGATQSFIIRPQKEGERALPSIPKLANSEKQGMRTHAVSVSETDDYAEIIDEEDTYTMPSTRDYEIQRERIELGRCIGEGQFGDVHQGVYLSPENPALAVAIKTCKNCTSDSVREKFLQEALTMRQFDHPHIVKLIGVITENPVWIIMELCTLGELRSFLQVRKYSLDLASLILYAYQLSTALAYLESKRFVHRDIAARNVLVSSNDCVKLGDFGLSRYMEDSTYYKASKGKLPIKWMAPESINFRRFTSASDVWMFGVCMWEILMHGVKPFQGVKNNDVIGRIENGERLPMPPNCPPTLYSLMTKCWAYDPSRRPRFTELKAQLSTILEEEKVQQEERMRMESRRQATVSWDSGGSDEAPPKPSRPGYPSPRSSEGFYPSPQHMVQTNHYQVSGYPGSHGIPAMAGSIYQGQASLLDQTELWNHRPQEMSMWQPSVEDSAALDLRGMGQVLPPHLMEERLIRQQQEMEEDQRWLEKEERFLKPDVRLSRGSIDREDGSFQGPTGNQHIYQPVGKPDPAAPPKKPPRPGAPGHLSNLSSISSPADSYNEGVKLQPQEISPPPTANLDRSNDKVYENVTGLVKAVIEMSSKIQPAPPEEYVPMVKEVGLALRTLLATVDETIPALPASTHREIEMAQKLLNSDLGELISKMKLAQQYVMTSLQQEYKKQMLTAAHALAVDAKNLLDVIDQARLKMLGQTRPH

Regarding `CCCS(=O)(=O)c1ccccc1Nc1nc(Nc2ccc(N3CCC(N4CCCC4)CC3)cc2OC)ncc1Cl` [Example 26-29], the pIC50 in experiment [1] was greater than 9.00; in experiment [2] (Mus musculus, 4T1) it was 6.59; against FAK it was 6.51.

`CCCS(=O)(=O)c1ccccc1Nc1nc(Nc2ccc(F)cc2OC)ncc1Cl` [Example 26-30]: the pIC50 in experiment [1] is 8.36; in experiment [2] (Mus musculus, 4T1), 6.12; at FAK, 6.00.

For the compound `CCS(=O)(=O)c1ccccc1Nc1nc(Nc2ccc(N3CCOCC3)cc2OC)ncc1Cl` [Example 27-1], the pIC50 in experiment [1] is 7.85; in experiment [2] (Mus musculus, 4T1) it was 6.33; at FAK it was 7.22.

As to `CCS(=O)(=O)c1ccccc1Nc1nc(Nc2ccc(N3CCC(N4CCCCC4)CC3)cc2OC)ncc1Cl` [Example 27-2], the pIC50 in experiment [1] was 8.29; in experiment [2] (Mus musculus, 4T1), 5.96; on FAK, 6.30.

For the compound `CCS(=O)(=O)c1ccccc1Nc1nc(Nc2ccc(-n3cncn3)cc2OC)ncc1Cl` [Example 27-3], the pIC50 in experiment [1] was 8.20; in experiment [2] (Mus musculus, 4T1) it was 6.25; at FAK, less than 5.00.

For the compound `CCS(=O)(=O)c1ccccc1Nc1nc(Nc2ccc(N3CCC(N4CCOCC4)CC3)cc2OC)ncc1Cl` [Example 27-4], the pIC50 was 7.96 in experiment [1]; 6.57 in experiment [2] (Mus musculus, 4T1); 7.00 against FAK.

With `CCS(=O)(=O)c1ccccc1Nc1nc(Nc2ccc(N3CCN(C(C)=O)CC3)cc2OC)ncc1Cl` [Example 27-5], the pIC50 in experiment [1] was 8.09; in experiment [2] (Mus musculus, 4T1), 6.52; against FAK it was 7.40.

Regarding `CCS(=O)(=O)c1ccccc1Nc1nc(Nc2ccc(N3CCCC(C(N)=O)C3)cc2OC)ncc1Cl` (stereo not drawn) [Example 27-6], the pIC50 was 9.00 in experiment [1]; 6.51 in experiment [2] (Mus musculus, 4T1); 7.10 on FAK.

With `CCS(=O)(=O)c1ccccc1Nc1nc(Nc2ccc(CN3CCN(C)CC3)cc2OC)ncc1Cl` [Example 27-7], the pIC50 in experiment [1] was 8.26; in experiment [2] (Mus musculus, 4T1), 6.24; against FAK it was 5.70.

As to `CCS(=O)(=O)c1ccccc1Nc1nc(Nc2ccc(N3CCC[C@@H](C(N)=O)C3)cc2OC)ncc1Cl` [Example 27-8], the negative logarithm of the IC50 (pIC50) in experiment [1] was 8.03; in experiment [2] (Mus musculus, 4T1), 6.12; on FAK, 6.22.

Turning to `CCS(=O)(=O)c1ccccc1Nc1nc(Nc2ccc(N3CCC(N4CCN(C)CC4)CC3)cc2OC)ncc1Cl` [Example 27-9], the pIC50 in experiment [1] is 8.38; in experiment [2] (Mus musculus, 4T1), 6.44; against FAK it was 6.30.

On to `COc1cc(N2CCOCC2)ccc1Nc1ncc(Cl)c(Nc2ccccc2S(=O)(=O)C(C)C)n1` [Example 28-3], for which the pIC50 in experiment [1] is 8.13; in experiment [2] (Mus musculus, 4T1), 6.54; against FAK it was 7.15.

Regarding `COc1cc(-n2cncn2)ccc1Nc1ncc(Cl)c(Nc2ccccc2S(=O)(=O)C(C)C)n1` [Example 28-4], the pIC50 is 8.12 in experiment [1]; 6.52 in experiment [2] (Mus musculus, 4T1); 6.52 on FAK.

As for `Cc1cc(N2CCOCC2)ccc1Nc1ncc(Cl)c(Nc2ccccc2S(=O)(=O)C(C)C)n1` [Example 28-6], the pIC50 in experiment [1] was 7.77; in experiment [2] (Mus musculus, 4T1), 6.25; on FAK it was 6.22.

As for `COc1cc(N2CCC(N3CCCCC3)CC2)ccc1Nc1ncc(Cl)c(Nc2ccccc2S(=O)(=O)C(C)C)n1` [Example 28-8], the pIC50 in experiment [1] was 8.34; in experiment [2] (Mus musculus, 4T1), 6.43; against FAK, 6.40.

Regarding `COc1cc(N2CCC(N3CCCC3)CC2)ccc1Nc1ncc(Cl)c(Nc2ccccc2S(=O)(=O)C(C)C)n1` [Example 28-9], the pIC50 in experiment [1] is 8.51; in experiment [2] (Mus musculus, 4T1) it was 6.44; at FAK, 6.30.

On to `COCC1CCN(c2ccc(Nc3ncc(Cl)c(Nc4ccccc4S(=O)(=O)C(C)C)n3)c(OC)c2)CC1` [Example 28-10], for which the pIC50 in experiment [1] is 7.70; in experiment [2], 5.73; against FAK, 5.52.

Consider `COc1cc(N2CCN(C(C)=O)CC2)ccc1Nc1ncc(Cl)c(Nc2ccccc2S(=O)(=O)C(C)C)n1` [Example 28-11], for which the pIC50 is 8.38 in experiment [1], 6.20 in experiment [2] and 6.30 at FAK.

As to `COc1cc(N2CCN(C(C)C)CC2)ccc1Nc1ncc(Cl)c(Nc2ccccc2S(=O)(=O)C(C)C)n1` [Example 28-14], the negative logarithm of the IC50 (pIC50) in experiment [1] was 8.52; in experiment [2] (Mus musculus, 4T1), 5.84; on FAK, 7.00.

`COc1cc(N2CCC(C(N)=O)CC2)ccc1Nc1ncc(Cl)c(Nc2ccccc2S(=O)(=O)C(C)C)n1` [Example 28-15]: the pIC50 in experiment [1] was 8.00; in experiment [2] (Mus musculus, 4T1) it was 6.16; at FAK it was 6.30.

Turning to `COc1cc(N2CCC(OC)C2)ccc1Nc1ncc(Cl)c(Nc2ccccc2S(=O)(=O)C(C)C)n1` (stereo not drawn) [Example 28-17], the pIC50 is 7.82 in experiment [1]; 5.72 in experiment [2] (Mus musculus, 4T1); 6.80 against FAK.

For `COc1cc(N2CCC(OC)CC2)ccc1Nc1ncc(Cl)c(Nc2ccccc2S(=O)(=O)C(C)C)n1` [Example 28-18], the pIC50 in experiment [1] is 8.04; in experiment [2] (Mus musculus, 4T1), 5.69; on FAK it was less than 5.00.

For the compound `CNC1CCN(c2ccc(Nc3ncc(Cl)c(Nc4ccccc4S(=O)(=O)C(C)C)n3)c(OC)c2)C1` (stereo not drawn) [Example 28-21], the negative-log IC50 (pIC50) in experiment [1] was 8.89; in experiment [2] (Mus musculus, 4T1) it was 6.64; on FAK, 7.00.

Take `COc1cc(N2CCC(N(C)C)C2)ccc1Nc1ncc(Cl)c(Nc2ccccc2S(=O)(=O)C(C)C)n1` (stereo not drawn) [Example 28-22]: the negative logarithm of the IC50 (pIC50) is 8.89 in experiment [1]; 6.52 in experiment [2] (Mus musculus, 4T1); 7.00 on FAK.

Regarding `COc1cc(N2CCN(C)C(=O)C2)ccc1Nc1ncc(Cl)c(Nc2ccccc2S(=O)(=O)C(C)C)n1` [Example 28-23], the pIC50 in experiment [1] is 8.23; in experiment [2] (Mus musculus, 4T1) it was 6.55; against FAK, 6.30.

Regarding `COc1cc(N2CCC(N3CCNCC3)CC2)ccc1Nc1ncc(Cl)c(Nc2ccccc2S(=O)(=O)C(C)C)n1` [Example 28-25], the pIC50 in experiment [1] was 8.41; in experiment [2] (Mus musculus, 4T1) it was 6.89; against FAK, 7.40.

`COc1cc(N2CCN3COCC[C@H]3C2)ccc1Nc1ncc(Cl)c(Nc2ccccc2S(=O)(=O)C(C)C)n1` [Example 28-26]: the pIC50 in experiment [1] was 8.18; in experiment [2] (Mus musculus, 4T1) it was 6.24; against FAK, 6.70.

In the case of `COc1cc(OC)c(OC)cc1Nc1ncc(Cl)c(Nc2ccccc2S(=O)(=O)C(C)C)n1` [Example 28-30], the pIC50 in experiment [1] was 8.64; in experiment [2] (Mus musculus, 4T1), 6.96; against FAK, 6.05.

With `CC(C)S(=O)(=O)c1ccccc1Nc1nc(Nc2cccc3c2OCC3)ncc1Cl` [Example 28-31], the pIC50 in experiment [1] was 8.13; in experiment [2] (Mus musculus, 4T1) it was 5.97; against FAK, 7.22.

As to `CCC(CC)S(=O)(=O)c1ccccc1Nc1nc(Nc2ccc(N3CCC(N4CCCCC4)CC3)cc2OC)ncc1Cl` [Example 29-2], the pIC50 in experiment [1] is 8.48; in experiment [2] (Mus musculus, 4T1), 5.96; against FAK, 6.15.

Regarding `CCC(CC)S(=O)(=O)c1ccccc1Nc1nc(Nc2ccc(N3CCN(C(C)=O)CC3)cc2OC)ncc1Cl` [Example 29-3], the pIC50 in experiment [1] was 8.25; in experiment [2] (Mus musculus, 4T1), 6.00; against FAK, 7.00.

With `COc1cc(N2CCOCC2)ccc1Nc1ncc(Cl)c(Nc2ccccc2S(=O)(=O)C2CC2)n1` [Example 30-1], the pIC50 in experiment [1] is 7.66; in experiment [2] (Mus musculus, 4T1), 6.05; against FAK, 6.70.

Take `COc1cc(N2CCN(C(C)=O)CC2)ccc1Nc1ncc(Cl)c(Nc2ccccc2S(=O)(=O)C2CC2)n1` [Example 30-2]: the pIC50 in experiment [1] is 7.92; in experiment [2] (Mus musculus, 4T1) it was 6.33; against FAK, 6.70.

As for `COc1cc(N2CCCC(C(N)=O)C2)ccc1Nc1ncc(Cl)c(Nc2ccccc2S(=O)(=O)C2CC2)n1` (stereo not drawn) [Example 30-3], the negative-log IC50 (pIC50) is 7.72 in experiment [1]; 6.17 in experiment [2] (Mus musculus, 4T1); 6.30 on FAK.

`COc1cc(-n2cncn2)ccc1Nc1ncc(Cl)c(Nc2ccccc2S(=O)(=O)C2CC2)n1` [Example 30-4]: the pIC50 is 7.60 in experiment [1]; 6.00 in experiment [2] (Mus musculus, 4T1); 6.52 at FAK.

Regarding `COc1cc(CN2CCN(C)CC2)ccc1Nc1ncc(Cl)c(Nc2ccccc2S(=O)(=O)C2CC2)n1` [Example 30-5], the pIC50 in experiment [1] was 8.07; in experiment [2] (Mus musculus, 4T1), 6.54; against FAK, 5.70.

For the compound `COc1cc(N2CCC[C@@H](C(N)=O)C2)ccc1Nc1ncc(Cl)c(Nc2ccccc2S(=O)(=O)C2CC2)n1` [Example 30-6], the pIC50 in experiment [1] was 7.82; in experiment [2] (Mus musculus, 4T1) it was 5.99; against FAK, 6.00.

As to `COc1cc(N2CCC(N3CCN(C)CC3)CC2)ccc1Nc1ncc(Cl)c(Nc2ccccc2S(=O)(=O)C2CC2)n1` [Example 30-7], the pIC50 in experiment [1] was 8.06; in experiment [2] (Mus musculus, 4T1) it was 6.33; at FAK, 6.22.

As to `COc1cc(F)ccc1Nc1ncc(Cl)c(Nc2ccccc2S(C)(=O)=O)n1` [Example 31-1], the pIC50 in experiment [1] was 7.52; in experiment [2] (Mus musculus, 4T1), 5.80; against FAK, less than 5.00.

Turning to `COc1cc(N2CCN(C(C)=O)CC2)ccc1Nc1ncc(Cl)c(Nc2ccccc2S(=O)(=O)C2CCCC2)n1` [Example 33-1], the pIC50 was 8.60 in experiment [1]; 6.60 in experiment [2] (Mus musculus, 4T1); 7.10 on FAK.

Consider `COc1cc(N2CCOCC2)ccc1Nc1ncc(Cl)c(Nc2ccccc2S(=O)(=O)C2CCCCC2)n1` [Example 34-2], for which the pIC50 is 7.96 in experiment [1]; 5.93 in experiment [2] (Mus musculus, 4T1); 7.10 against FAK.

Consider `CCCCCS(=O)(=O)c1ccccc1Nc1nc(Nc2ccc(N3CCOCC3)cc2OC)ncc1Cl` [Example 34-3], for which the pIC50 in experiment [1] is 7.48; in experiment [2] (Mus musculus, 4T1), 5.65; against FAK it was 6.72.
